In patent US12502386B2, “Nitrogen-containing heterocyclic compound and use thereof” (SHANGHAI SHIJIANG BIOTECHNOLOGY CO., LTD, priority 2022, dated 2025) one finds IC50 data, which are given here for four compounds.

By IC50 is commonly meant the concentration needed to halve the response being measured.

The subject of one assay is Con-NCI-H82 cell. Description: CellTiter-Glo cell viability, Con-NCI-H82 cell (empty-vector control). The assay is classed as cell-based, human. Particulars: Homo sapiens, NCI-H82, NCI-H82 transfected with empty virus vector (control), intracellular ATP, read-out: inhibitory effect on Con-NCI-H82 (IC50). Background: ATP-based viability assays read luminescence as a measure of living cells.

For a further assay, the system named is ov-NNMT NCI-H82 cell. Description: CellTiter-Glo cell viability, ov-NNMT NCI-H82 cell (NNMT overexpressed). The assay is classed as cell-based, human. Particulars: Homo sapiens, NCI-H82, NCI-H82 overexpressing NNMT protein, intracellular ATP, read-out: inhibitory effect on OV-NNMT NCI-H82 (IC50).
The subject of the next assay is sh-DNMT1 NCI-H82 cell. Description: CellTiter-Glo cell viability, sh-DNMT1 NCI-H82 cell (DNMT1 knocked down). To be noted: Homo sapiens, NCI-H82, NCI-H82 with DNMT1 knocked down by shRNA, intracellular ATP, read-out: inhibitory effect on sh-DNMT1 NCI-H82 (IC50). The assay is classed as cell-based, human.
The subject of the next assay is NCI-H82. Description: CellTiter-Glo cell viability, tumor cell line NCI-H82. The format is cell-based. To be noted: NCI-H82, 72 h; human small cell lung cancer cell; 3 days of culture; read-out: inhibitory effect on NCI-H82 (IC50). As to the method:
(§1) Cell viability was detected using the Promega CellTiter-Glo kit, cell viability was determined by directly measuring intracellular ATP content. In the experiment, the IC50 value of the compounds prepared in the Examples of the present invention on various tumor cell lines was detected.
(§2) Each tumor cell was cultured in relevant medium. After cell passage, the gradient diluted compounds prepared in the Examples of the present invention was added. After 3 days of culture, the relevant IC50 (50% inhibiting concentration) was measured. The name, source and culture conditions of each tumor cell line were as follows:
Cell line NCI-H82 (ATCC, No. HTB-175) was cultured in 10% fetal bovine serum-containing RPMI1640 medium (+P/S).

The subject of a further assay is G-401. Description: CellTiter-Glo cell viability, tumor cell line G-401. The assay is classed as cell-based. Particulars: G-401, 72 h; human renal carcinoma Wilms cell; 3 days of culture; read-out: inhibitory effect on G-401 (IC50). As to the method: as §1, §2
Cell line G-401 (ATCC, No. CRL-1441) was cultured in 10% fetal bovine serum-containing McCoy's 5a medium (+P/S).

A further assay has as its system MDA-MB-453. Description: CellTiter-Glo cell viability, tumor cell line MDA-MB-453. To be noted: Homo sapiens, MDA-MB-453, 72 h; breast cancer cell; 3 days of culture; read-out: inhibitory effect on MDA-MB-453 (IC50). The assay is classed as cell-based. How it is done: as §1
(§3) Each tumor cell was cultured in relevant medium. After cell passage, the gradient diluted compounds prepared in the Examples of the present invention was added. After 3 days of culture, the relevant IC50 (50% inhibiting concentration) was measured. The name, source and culture conditions of each tumor cell line were as follows: […]

The next assay relates to SW48. Description: CellTiter-Glo cell viability, tumor cell line SW48. The format is cell-based. To be noted: SW48, 72 h; human colon adenocarcinoma cell; 3 days of culture; read-out: inhibitory effect on SW48 (IC50). How it is done: as §1, §2
Cell line SW48 (ATCC, No. CCL-231) was cultured in 10% fetal bovine serum-containing Leibovitz's L-15 medium (+P/S).

The subject of another assay is CFPAC-1. Description: CellTiter-Glo cell viability, tumor cell line CFPAC-1. The format is cell-based. To be noted: CFPAC-1, 72 h; human pancreatic cancer cell; 3 days of culture; read-out: inhibitory effect on CFPAC-1 (IC50). As to the method:
as §1, §2
Cell line CFPAC-1 (ATCC, No. CRL-1918) was cultured in 10% fetal bovine serum-containing IMDM medium (+P/S).

Another assay concerns 786-O. Description: CellTiter-Glo cell viability, tumor cell line 786-O. The format is cell-based. To be noted: Homo sapiens, 786-0, 72 h; clear cell renal cell adenocarcinoma cell; 3 days of culture; read-out: inhibitory effect on 786-O (IC50). How it is done: as §1, §2
Cell line 786-0 (ATCC, No. CRL-1932) was cultured in 10% fetal bovine serum-containing RPMI164B medium (+P/S).

The next assay has as its system GB-1. Description: CellTiter-Glo cell viability, tumor cell line GB-1. The assay is classed as cell-based. Particulars: GB-1, 72 h; human brain glioblastoma cell; 3 days of culture; read-out: inhibitory effect on GB-1 (IC50). As to the method:
as §1, §2
Cell line GB-1 (JCRB, No. IFO50489) was cultured in 10% fetal bovine serum-containing DMEM medium (+P/S).
(§4) Cell viability was detected using the Promega CellTiter-Glo kit, cell viability was determined by directly measuring intracellular ATP content. In the experiment, the IC50 value of the compounds prepared in the Examples of the present invention on various brain tumor cell lines was detected.

The next assay has as its system SF-126. Description: CellTiter-Glo cell viability, tumor cell line SF-126. Particulars: SF-126, 72 h, read-out: inhibitory effect on SF-126 (IC50); human glioblastoma multiforme cell; 3 days of culture. The assay is classed as cell-based. As to the method:
as §1, §2
Cell line SF126 (JCRB, No. IFO50286) was cultured in 10% fetal bovine serum-containing EMEM medium (+P/S).
as §4

For a further assay, the system named is D341 Med. Description: CellTiter-Glo cell viability, brain tumor cell line D341 Med. Particulars: Homo sapiens, 72 h, cerebellar medulloblastoma cell, 3 days of culture, read-out: inhibitory effect on D341 Med (IC50). The format is cell-based. As to the method: as §4, §2
Cell line D341 Med (ATCC, No. HTB-187) was cultured in 20% fetal bovine serum-containing EMEM medium (+P/S).

In the next assay the test system is Kelly. Description: CellTiter-Glo cell viability, brain tumor cell line Kelly. The assay is classed as cell-based. Particulars: Homo sapiens, 72 h, brain neuroblastoma cell, 3 days of culture, read-out: inhibitory effect on Kelly (IC50). As to the method: as §4, §2
Cell line Kelly (ECACC, No. 92110411) was cultured in 10% fetal bovine serum and 2 mM glutamine-containing RPMI1640 medium.

A further assay has as its system NB-1. Description: CellTiter-Glo cell viability, brain tumor cell line NB-1. The assay is classed as cell-based. To be noted: Homo sapiens, NB1, 72 h; brain neuroblastoma cell; 3 days of culture; read-out: inhibitory effect on NB-1 (IC50). How it is done: as §4, §3

`COc1ccc2c(c1OCCCCOc1ccccc1)C(C(Cl)(Cl)Cl)N1CCc3cc4c(cc3C1=C2)OCO4` (centres unmarked) [AB35476]: the IC50 in the assay on Con-NCI-H82 cell is 990 nM; in the assay with ov-NNMT NCI-H82 cell, 3690 nM; in the assay with sh-DNMT1 NCI-H82 cell it was 4560 nM; with NCI-H82, 990 nM; in the assay with G-401 it was 1320 nM; in the assay on MDA-MB-453, 850 nM. The IC50 in the assay on SW48 was determined as 1110 nM; with CFPAC-1, 14200 nM; in the assay with 786-O it was 12300 nM; with GB-1, 15800 nM; in the assay on SF-126, 18300 nM; with D341 Med, 890 nM. Moreover, the IC50 with Kelly worked out at 1320 nM; in the assay with NB-1 it was 2460 nM.

Turning to `COc1ccc2c(c1OC)CN1CCc3cc4c(cc3C1=C2Cc1ccc(OC(F)(F)F)cc1)OCO4` [AB31866], the IC50 in the assay with Con-NCI-H82 cell turned out to be 820 nM; in the assay with ov-NNMT NCI-H82 cell it was 1860 nM; with sh-DNMT1 NCI-H82 cell it was 3480 nM; with NCI-H82, 820 nM; in the assay with G-401, 1080 nM; in the assay with MDA-MB-453 it was 2320 nM. For the same compound, the 50% inhibitory concentration (IC50) came to 1960 nM in the assay on SW48; 12400 nM in the assay on CFPAC-1; 15600 nM in the assay with 786-O; 10500 nM in the assay with GB-1; 20100 nM in the assay with SF-126; 1540 nM in the assay with D341 Med. Further, the 50% inhibitory concentration (IC50) stood at 1320 nM in the assay with Kelly and 2190 nM with NB-1.

In the case of `COc1ccc2c(c1OC/C=C(\C)CCC=C(C)C)C(C(Cl)(Cl)Cl)N1CCc3cc4c(cc3C1=C2)OCO4` (centres unmarked) [AB35405], the 50% inhibitory concentration (IC50) in the assay with Con-NCI-H82 cell is 920 nM; in the assay on ov-NNMT NCI-H82 cell, 2130 nM; with sh-DNMT1 NCI-H82 cell it was 3860 nM; with NCI-H82, 920 nM; in the assay on G-401 it was 880 nM; in the assay with MDA-MB-453 it was 1760 nM. For the same compound, the 50% inhibitory concentration (IC50) in the assay with SW48 amounted to 2340 nM; in the assay with CFPAC-1, 18300 nM; in the assay with 786-O, 13100 nM; in the assay with GB-1, 16000 nM; in the assay with SF-126, 20300 nM; in the assay with D341 Med, 760 nM. Further, the 50% inhibitory concentration (IC50) amounted to 3120 nM in the assay with Kelly and 2460 nM in the assay with NB-1.

Take `COc1ccc2c(c1OCCCCl)C(C1CCCC1)N1CCc3cc4c(cc3C1=C2)OCO4` (centres unmarked) [AB35434]: the IC50 in the assay on Con-NCI-H82 cell turned out to be 1680 nM; in the assay with ov-NNMT NCI-H82 cell it was 5120 nM; in the assay with sh-DNMT1 NCI-H82 cell, 4980 nM; in the assay on NCI-H82, 1680 nM; with G-401 it was 2640 nM; in the assay on MDA-MB-453, 2320 nM. The concentration for half-maximal inhibition (IC50) in the assay with SW48 is 3050 nM; in the assay on CFPAC-1, over 30000 nM; in the assay with 786-O, 22200 nM; in the assay with GB-1, 25700 nM; in the assay on SF-126, over 30000 nM; in the assay with D341 Med, 3150 nM. Also, the values for the concentration for half-maximal inhibition (IC50) with Kelly and in the assay on NB-1 were 2460 nM and 2980 nM, respectively.
